Source: patent US8785452B2, “Anti-infective compounds” (priority 2008, dated 2014)

System: M. tuberculosis clinical isolates
Format: cell-based, Mycobacterium tuberculosis
Details: multi-drug-resistant and extensive-drug-resistant isolates

Compound: Cc1cccn2c(=O)c(C=O)c(Nc3cccc(Cl)c3)nc12 [compound 133, 2-(3-Chlorophenylamino)-9-methyl-4-oxo-4H-pyrido[1,2-a]pyrimidine-3-carbaldehyde]
- activity (MIC values) against MDR and XDR clinical isolates, in words: within the micromolar range
